Assay: mn = molality of the nth substance listed, in mol/kg
Details: 101 kPa, Liquid

CC1=CC(=O)c2ccccc2C1=O [2-methyl-1,4-naphthalenedione] + Cc1cccc(C)c1
Details	mass density [kg/m3]	viscosity [mPa·s]
303.15 K, m1 = 0.0452	857.6	0.5673
303.15 K, m1 = 0.0902	859.6	0.5771
303.15 K, m1 = 0.1352	861.6	0.5802
303.15 K, m1 = 0.1802	863.6	0.5844
303.15 K, m1 = 0.2254	865.6	0.5902
303.15 K, m1 = 0.272	867.7	0.6031
308.15 K, m1 = 0.0452	853.1	0.5351
308.15 K, m1 = 0.0902	855.1	0.5422
308.15 K, m1 = 0.1352	857.1	0.5467
308.15 K, m1 = 0.1802	859.1	0.5523
308.15 K, m1 = 0.2254	861.1	0.5566
308.15 K, m1 = 0.272	863.2	0.5654
313.15 K, m1 = 0.0452	848.9	0.5098
313.15 K, m1 = 0.0902	850.9	0.5144
313.15 K, m1 = 0.1352	852.9	0.5188
313.15 K, m1 = 0.1802	854.9	0.5237
313.15 K, m1 = 0.2254	856.9	0.5284
313.15 K, m1 = 0.272	859	0.5352
318.15 K, m1 = 0.0452	844.4	0.4864
318.15 K, m1 = 0.0902	846.4	0.4931
318.15 K, m1 = 0.1352	848.4	0.4977
318.15 K, m1 = 0.1802	850.4	0.5013
318.15 K, m1 = 0.2254	852.4	0.505
318.15 K, m1 = 0.272	854.5	0.5117
323.15 K, m1 = 0.0452	840.3	0.4593
323.15 K, m1 = 0.0902	842.3	0.4642
323.15 K, m1 = 0.1352	844.3	0.4669
323.15 K, m1 = 0.1802	846.3	0.4711
323.15 K, m1 = 0.2254	848.3	0.4753
323.15 K, m1 = 0.272	850.4	0.4817
328.15 K, m1 = 0.0452	835.7	0.4381
328.15 K, m1 = 0.0902	837.7	0.4432
328.15 K, m1 = 0.1352	839.7	0.4456
328.15 K, m1 = 0.1802	841.7	0.4497
328.15 K, m1 = 0.2254	843.7	0.4539
328.15 K, m1 = 0.272	845.8	0.463
333.15 K, m1 = 0.0452	831.6	0.4148
333.15 K, m1 = 0.0902	833.6	0.4198
333.15 K, m1 = 0.1352	835.6	0.4242
333.15 K, m1 = 0.1802	837.6	0.4269
333.15 K, m1 = 0.2254	839.6	0.429
333.15 K, m1 = 0.272	841.7	0.4342

CC1=CC(=O)c2ccccc2C1=O [2-methyl-1,4-naphthalenedione] + Cc1ccccc1
Details	mass density [kg/m3]	viscosity [mPa·s]
303.15 K, m1 = 0.0454	859.6	0.5365
303.15 K, m1 = 0.0909	861.7	0.544
303.15 K, m1 = 0.1365	863.8	0.5487
303.15 K, m1 = 0.1817	865.9	0.5572
303.15 K, m1 = 0.227	868	0.5612
303.15 K, m1 = 0.2728	870.1	0.5683
308.15 K, m1 = 0.0454	855	0.5088
308.15 K, m1 = 0.0909	857.1	0.516
308.15 K, m1 = 0.1365	859.2	0.5185
308.15 K, m1 = 0.1817	861.3	0.5246
308.15 K, m1 = 0.227	863.4	0.5277
308.15 K, m1 = 0.2728	865.5	0.5346
313.15 K, m1 = 0.0454	850	0.4814
313.15 K, m1 = 0.0909	852.1	0.488
313.15 K, m1 = 0.1365	854.2	0.4902
313.15 K, m1 = 0.1817	856.3	0.4955
313.15 K, m1 = 0.227	858.4	0.4987
313.15 K, m1 = 0.2728	860.5	0.5051
318.15 K, m1 = 0.0454	845.6	0.4535
318.15 K, m1 = 0.0909	847.7	0.4582
318.15 K, m1 = 0.1365	849.8	0.463
318.15 K, m1 = 0.1817	851.9	0.4677
318.15 K, m1 = 0.227	854	0.4753
318.15 K, m1 = 0.2728	856.1	0.4775
323.15 K, m1 = 0.0454	840.8	0.4321
323.15 K, m1 = 0.0909	842.9	0.4362
323.15 K, m1 = 0.1365	845	0.439
323.15 K, m1 = 0.1817	847.1	0.443
323.15 K, m1 = 0.227	849.2	0.4459
323.15 K, m1 = 0.2728	851.3	0.4515
328.15 K, m1 = 0.0454	836.1	0.413
328.15 K, m1 = 0.0909	838.2	0.4147
328.15 K, m1 = 0.1365	840.3	0.4176
328.15 K, m1 = 0.1817	842.4	0.4208
328.15 K, m1 = 0.227	844.5	0.4242
328.15 K, m1 = 0.2728	846.6	0.4303
333.15 K, m1 = 0.0454	831.2	0.3872
333.15 K, m1 = 0.0909	833.3	0.3909
333.15 K, m1 = 0.1365	835.4	0.3927
333.15 K, m1 = 0.1817	837.5	0.398
333.15 K, m1 = 0.227	839.6	0.4065
333.15 K, m1 = 0.2728	841.7	0.4137

From the NIST ThermoML archive (doi:10.1021/je7006549)
